{"source": "patent US6989390B2", "about": "“Amonafide salts” (priority 2002, dated 2006)", "key": {"SF268 (Glioma)": {"test_system": "SF268 (Glioma)", "experiment": "Cytotoxic activity in vitro, percent net growth (SRB/MTT)", "assay_type": "cell-based", "conditions": "SF268, 48 hours", "protocol": "(§1) These cell lines are used by the National Cancer Institute: Developmental Therapeutics Branch in their preliminary screening process for antineoplastic agents. Subsequently, Amonafide Malate was tested against a larger panel of breast, lung and colon cell lines\n(§2) Cells were grown in RPMI 1640 medium containing 5% fetal bovine serum and 2 mM L-glutamine. Dependent upon cell doubling time, between 5,000 and 40,000 cells were inoculated into 96 well microtiter plates in a volume of 100 uL per well. The plates were incubated at 37° C., 5% CO2, 95% air, and 100% relative humidity for 24 hours prior to the addition of the experimental drug. After the, 24 hour incubation, two (2) plates of each cell line were fixed in situ with trichloroacetic acid (TCA) to establish the cell population at time of drug addition (Tz).\n(§3) Prior to use, the experimental drugs were solubilized in dimethyl sulfoxide at 400-fold the desired final maximum test concentration and frozen. At time of drug addition, an aliquot of frozen concentrate was thawed and diluted to twice the desired final maximum test concentration with complete medium containing 50 ug/ml gentamicin. An additional four (4) 10-fold or ½ log serial dilutions was made for a total of five (5) drug concentrations plus a control. An aliquot of 100 ul of each drug dilution was added to the appropriate well that already contains 100 ul of medium containing the cells. The plates were then incubated for 48 hours at 37° C., 5% CO2; 95% air and 100% relative humidity.\n(§4) The number of viable cells was estimated by either a SRB or MTT calorimetric assays.\n(§5) For SRB assay, cells were fixed in situ by the gentle addition of 50 ul cold (w/v) TCA (final concentration, 10% TCA) and incubated for 60 minutes at 4° C. The supernatant was discarded, plates washed five (5) times with tap water and air dried. Then Sulforhodamine B (SRB) solution (100 μl) at a 0.4% (w.v.) in 1% acetic acid was added to each well, and the plates incubated for 10 minutes at room temperature. Unbound dye was removed by washing five (5) times with 1% acetic acid and the plates were air dried. The bound stain was solubilized with 10 mM trizma base and the absorbance was read on an automated plate reader at a wavelength of 515 nm.\n(§6) The MTT assay measures the ability of viable cells to reduce a tetrazolium salt (MTT) to an insoluble form, a formazan salt. For MTT analysis 20 μl of MTT solution (5 mg/ml in PBS) was added to each well containing cells. The plate was incubated at 37° C. for 5 hours. Media was removed with needle and syringe. 200 μl of DMSO was added to each well and pipetted up and down to dissolve crystals. Plate was placed into a 37° C. incubator for 5 minutes to dissolve air bubbles. Absorbance was read on an automated plate reader at a wavelength of 550 nm.\n(§7) Percent net growth inhibition, as shown in FIGS. 2-7, was calculated using the seven absorbance measurements: absorbance by cells at time zero (Tz), absorbance by cells grown in the absence of drug (C), and absorbance of cells grown at the five drug concentrations (Ti). The following expression was used: % Net Growth=[(Ti−Tz)/(C−Tz)]×100 if Ti was greater than or equal to Tz. % Net Growth=[(Ti−Tz)/Tz]×100 if Ti was less than Tz.\n(§8) Using the plot of Percent Net Growth as a function of drug concentration, lethality concentration “50%” (LC50), total growth inhibition (TGI) and growth inhibition “50%” (GI50) were determined as follows."}, "MCF7 (Breast)": {"test_system": "MCF7 (Breast)", "experiment": "Cytotoxic activity in vitro, percent net growth (SRB/MTT)", "assay_type": "cell-based", "conditions": "MCF7, 48 hours", "protocol": "as §1, §2, §3, §4, §5, §6, §7, §8"}, "[1]": {"test_system": "H460 (Non-Small Cell Lung Cancer)", "experiment": "Cytotoxic activity in vitro, percent net growth (SRB/MTT)", "assay_type": "cell-based", "conditions": "H460, 48 hours", "protocol": "as §1, §2, §3, §4, §5, §6, §7, §8"}, "[2]": {"experiment": "Daily body weight and general health monitoring during the hollow fiber study", "assay_type": "in vivo", "conditions": "mice, monitored daily for 6 days, i.p. dosing", "protocol": "Individual mouse body weights were recorded daily and animals were monitored daily for general health for 6 days."}, "[3]": {"conditions": "Percent Net Growth -50%, read-out: LC50 (the source's name)"}}, "data": [{"smiles": "CN(C)CCN1C(=O)c2cccc3cc(N)cc(c23)C1=O.O=C(O)C[C@H](O)C(=O)O", "note": "[Amonafide Malate]", "values": [{"measurement": "TGI", "setting": "SF268 (Glioma); Percent Net Growth 0%", "result": 154, "unit": "µM"}, {"measurement": "GI50", "setting": "SF268 (Glioma); Percent Net Growth 50%", "result": 7.7, "unit": "µM"}, {"measurement": "TGI", "setting": "MCF7 (Breast); Percent Net Growth 0%", "result": 110, "unit": "µM"}, {"measurement": "GI50", "setting": "MCF7 (Breast); Percent Net Growth 50%", "result": 5.16, "unit": "µM"}, {"measurement": "CC50", "setting": "MCF7 (Breast); [3]", "result": 662, "unit": "µM"}, {"measurement": "TGI", "setting": "[1]; Percent Net Growth 0%", "result": 96, "unit": "µM"}, {"measurement": "GI50", "setting": "[1]; Percent Net Growth 50%", "result": 4.11, "unit": "µM"}, {"measurement": "CC50", "setting": "[1]; [3]", "result": 170, "unit": "µM"}, {"measurement": "premature sacrifice for body weight loss of greater than 20% or other signs of toxicity", "setting": "[2]", "result": "not necessary to sacrifice any animals"}]}]}
